The IC50 is the concentration needed to halve the response being measured. Read a high IC50 as weaker potency in that assay.

Among the data in US20080070865A1, “TRIPHENYLPHOSPHINE OXIDE DERIVATIVES AND USES THEREOF” (Redpoint Bio Corporation, priority 2006, published 2008) are IC50 values, retold here.

A value given as a limit tells only on which side of the number the result lay.

In the test the target is T1, human TRPM5 ion channel (Homo sapiens, UniProt Q9NZQ8).
T1 construct: expressed in transfected cells
T1 sequence (Q9NZQ8 1-1165): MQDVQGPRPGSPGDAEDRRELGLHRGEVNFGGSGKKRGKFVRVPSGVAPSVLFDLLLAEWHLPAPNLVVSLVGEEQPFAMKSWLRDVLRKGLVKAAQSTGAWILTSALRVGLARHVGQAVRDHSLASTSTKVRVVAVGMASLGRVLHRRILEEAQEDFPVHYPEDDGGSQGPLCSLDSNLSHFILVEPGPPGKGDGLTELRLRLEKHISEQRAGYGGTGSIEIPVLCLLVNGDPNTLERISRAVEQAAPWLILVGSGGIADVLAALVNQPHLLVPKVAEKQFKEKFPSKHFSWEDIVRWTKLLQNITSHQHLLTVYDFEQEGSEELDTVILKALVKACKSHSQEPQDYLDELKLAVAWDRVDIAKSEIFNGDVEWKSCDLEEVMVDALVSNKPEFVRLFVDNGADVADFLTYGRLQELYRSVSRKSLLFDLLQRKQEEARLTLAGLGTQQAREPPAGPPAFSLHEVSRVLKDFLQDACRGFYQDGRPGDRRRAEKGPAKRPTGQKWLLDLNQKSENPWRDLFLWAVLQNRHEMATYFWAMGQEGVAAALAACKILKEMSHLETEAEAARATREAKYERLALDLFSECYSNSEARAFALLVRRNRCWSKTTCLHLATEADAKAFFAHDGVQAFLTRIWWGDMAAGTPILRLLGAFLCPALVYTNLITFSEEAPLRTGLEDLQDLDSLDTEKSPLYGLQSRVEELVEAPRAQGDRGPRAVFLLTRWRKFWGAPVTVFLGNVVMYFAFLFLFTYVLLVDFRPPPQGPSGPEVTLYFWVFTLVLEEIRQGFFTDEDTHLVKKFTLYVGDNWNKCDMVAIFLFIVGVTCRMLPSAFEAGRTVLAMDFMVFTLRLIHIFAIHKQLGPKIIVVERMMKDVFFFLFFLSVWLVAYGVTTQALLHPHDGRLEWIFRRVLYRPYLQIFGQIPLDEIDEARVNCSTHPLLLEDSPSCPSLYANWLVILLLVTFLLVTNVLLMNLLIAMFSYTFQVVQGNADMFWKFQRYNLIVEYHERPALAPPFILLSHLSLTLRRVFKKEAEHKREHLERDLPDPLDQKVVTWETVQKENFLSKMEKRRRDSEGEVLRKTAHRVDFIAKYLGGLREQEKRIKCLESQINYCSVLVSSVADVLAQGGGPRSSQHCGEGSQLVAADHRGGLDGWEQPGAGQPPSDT
In words: TRPM5 FLIPR membrane potential assay. In kind it is cell-based. The following applies: HEK293 cells stably expressing human TRPM5, membrane potential dye, stimulation with 3 μM ATP. The procedure:
The activity of human TRPM5 ion channel was measured in live cells on a fluorescent imaging plate reader (FLIPR). The basis of the assay (shown in FIG. 1) is the calcium-dependent activation of the ion channel which occurs by activation of a G-protein coupled receptor (GPCR). GPCR activation by an appropriate agonist causes a transient increase in […] Ca^2+ ion concentration which in turn causes the ion channel to open, letting in Na^+ ions. This influx causes a change in the membrane potential of the cell which can be monitored as a change in the fluorescent signal from voltage-dependent (membrane potential) fluorescent dyes. […] For the screening assay, the human TRPM5 gene was cloned, put into HEK293 cells, and a stable, high expression clone was used for screening. Cells were grown in standard media at 37° C. The day before screening, the cells were removed from flasks and added to 384 well clear bottom plates (8K cells in 20 μL/well). On the assay day, 20 μL of membrane potential dye (Part No. R8123, Molecular Devices Corp.) was added to the cells and dye was allowed to be taken up, i.e., load, into the cells for 1 hr at 37° C. […] The assay was started by addition of 10 μL of solution from the compound plate into the cell plate. During this process, continuous fluorescent recordings were made simultaneously for all wells. After addition of the compound solution, the tips were automatically washed and a stimulation solution of 3 μM ATP (an agonist for an endogenous purinurgic GPCR, was added to all wells of the cell plate. The height of the response was calculated and percent inhibition values, versus negative control wells, was calculated for the test samples. Unless otherwise indicated, the data in the table below were determined using the three assays described above, providing percent inhibition data at 10 μM.

In turn, `O=P(c1ccccc1)(c1ccccc1)c1ccccc1` [Example 1] had an IC50 of 5 µM.
With `O=P(c1ccccc1)(c1ccccc1)c1ccccc1O` [Example 2] the figure was 5 µM; with `O=P(c1ccccc1)(c1ccccc1)c1ccc(O)cc1` [Example 3], 5 µM.
The same measure for `Nc1ccccc1P(=O)(c1ccccc1)c1ccccc1` [Example 4]: 5 µM.
The same measure for `COc1ccccc1P(=O)(c1ccccc1)c1ccccc1` [Example 5]: above 100 µM.
With `CN(C)c1ccc(P(=O)(c2ccc(N(C)C)cc2)c2ccc(N(C)C)cc2)cc1` [Example 6], the IC50 was above 100 µM.
